# Columns and labels:
# [1] = tested on: 6-FAM-CUG23 (RNA, repeat) CUGCUGCUGCUGCUGCUGCUGCUGCUGCUGCUGCUGCUGCUGCUGCUGCUGCUGCUGCUGCUGCUGCUG; assay: fluorescence polarization; conditions: 250 mM NaCl, 50 μM ZnCl2, 50 mM Tris-HCl pH 7.0, 10% glycerol, 1 mM DTT, on ice, RNA 6 nM
# [2] = tested on: (CUG)12 RNA (CUGexp) (RNA, repeat) CUGCUGCUGCUGCUGCUGCUGCUGCUGCUGCUGCUG; assay: direct fluorescence titration; conditions: log K; fitted with HypSpec; buffer of the direct titration not stated separately
compound,measurement,setting,value
CC(=O)Nc1cccc(NC(=O)c2csc(NC(=O)c3ccc(Cl)cc3)n2)c1,binding,[1]; pentamidine-like polarization at 37.5 μM,yes
CC1Cc2c(N)nc(NCc3ccc(CNc4nc(N)c5c(n4)NC(=O)C(C)C5)cc3)nc2NC1=O (stereo not shown),binding,[1]; saturated at 250 μM,yes
CN1C(=Cc2cc[n+](C)c3ccccc23)Sc2ccccc21,binding constant,[2],6.5(1) logarithmic units
N=C(N)c1ccc(OCCCCCOc2ccc(C(=N)N)cc2)cc1,binding,[1]; 100 μM pentamidine positive control,yes

# Source: publication PMC5459475 (2017)
